{"source": "patent US11607421B2", "about": "“Ethanolamine-based lipid biosynthetic compounds, method of making and use thereof” (Metanoi Therapeutics, Inc., priority 2016, dated 2023)", "key": {"CYP2D6": {"target": "CYP2D6 (Homo sapiens, UniProt P10635)", "sequence (P10635 whole entry)": "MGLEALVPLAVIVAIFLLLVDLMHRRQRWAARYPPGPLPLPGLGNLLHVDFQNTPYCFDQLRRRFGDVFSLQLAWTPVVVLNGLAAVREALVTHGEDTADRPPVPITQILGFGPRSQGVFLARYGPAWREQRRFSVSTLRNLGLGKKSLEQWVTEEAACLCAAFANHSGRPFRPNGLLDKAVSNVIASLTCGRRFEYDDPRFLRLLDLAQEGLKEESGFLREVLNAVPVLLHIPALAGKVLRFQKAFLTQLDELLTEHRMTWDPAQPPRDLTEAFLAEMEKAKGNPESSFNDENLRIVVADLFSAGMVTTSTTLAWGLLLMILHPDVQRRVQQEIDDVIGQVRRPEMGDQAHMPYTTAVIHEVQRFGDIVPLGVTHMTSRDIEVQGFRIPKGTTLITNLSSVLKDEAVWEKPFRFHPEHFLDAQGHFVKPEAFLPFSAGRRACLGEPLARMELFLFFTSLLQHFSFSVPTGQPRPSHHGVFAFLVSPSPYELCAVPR", "test": "CYP inhibition in human liver microsomes"}, "[1]": {"test": "Stability in simulated intestinal fluid (SIF)", "assay_type": "in vitro ADME", "conditions": "10 μM, SIF pH 6.8, over time (to 120 min)", "description": "(§1) Samples (100 μl) were drawn at 0, 15, 30 and 60 min from SGF reaction-vials and at 0, 30, 60 and 120 min from SIF reaction-vials, quenched with acetonitrile, vortex-mixed, and centrifuged before supernatant analysis by LC-MS/MS analysis. […] For PK studies, a sparse sampling design with 3 mice per time point was used to collect blood samples at 5, 10, 15, 30 min and 1, 2, 3, 4, 5 and 6 h in K2EDTA-coated tubes. The pharmacokinetic parameters (AUClast, Cmax, CL and Vss) were calculated using non-compartmental analysis tool of Phoenix WinNonlin software (version 6.3).\n(§2) Given the extreme pH and various digestive enzymes, the GI tract presents a harsh environment to any ingested xenobiotic. Thus, many potential drug candidates are degraded in the GI tract, explaining their decreased bioavailability or inability to reach the target at effective concentrations. Simulated gastric fluid (SGF; pH 1.2) and simulated intestinal fluid (SIF; pH 6.8) closely mimic the GI tract environment and are amenable in vitro systems to evaluate degradation of a compound in GI tract (US Pharmacopoia).\n(§3) Simulated gastric fluid was prepared as per U.S. Pharmacopeia (USP) methods. Sodium chloride (2 g) and pepsin (3.2 g, from porcine stomach mucosa) were dissolved in 7.0 ml hydrochloric acid and Milli-Q water to make up the volume to 1000 ml and the pH was adjusted to 1.2. […]"}, "Ki67": {"test_system": "Ki67", "test": "Immunohistochemical staining of PC-3-luc xenografts", "assay_type": "in vivo, mice", "conditions": "Etn-treated tumors (40 mg/kg)", "description": "OCR was measured using an oxygen electrode.\nWhile ˜62% cells were Ki67-positive in untreated control tumors, Ki67 positivity was reduced to ˜40% in Etn-treated tumors (FIG. 14, panel Dii).\nTumors were formalin-fixed, paraffin-embedded and 5 μm thick prostate tumor sections were stained for Ki67 and c-PARP, and prostate cancer TMA (US Biomax, Derwood, Mass.) was immunostained for choline kinase. All stained slides were examined by a pathologist in a blinded-manner."}, "CYP2A6": {"target": "CYP2A6 (Homo sapiens, UniProt P11509)", "sequence (P11509 whole entry)": "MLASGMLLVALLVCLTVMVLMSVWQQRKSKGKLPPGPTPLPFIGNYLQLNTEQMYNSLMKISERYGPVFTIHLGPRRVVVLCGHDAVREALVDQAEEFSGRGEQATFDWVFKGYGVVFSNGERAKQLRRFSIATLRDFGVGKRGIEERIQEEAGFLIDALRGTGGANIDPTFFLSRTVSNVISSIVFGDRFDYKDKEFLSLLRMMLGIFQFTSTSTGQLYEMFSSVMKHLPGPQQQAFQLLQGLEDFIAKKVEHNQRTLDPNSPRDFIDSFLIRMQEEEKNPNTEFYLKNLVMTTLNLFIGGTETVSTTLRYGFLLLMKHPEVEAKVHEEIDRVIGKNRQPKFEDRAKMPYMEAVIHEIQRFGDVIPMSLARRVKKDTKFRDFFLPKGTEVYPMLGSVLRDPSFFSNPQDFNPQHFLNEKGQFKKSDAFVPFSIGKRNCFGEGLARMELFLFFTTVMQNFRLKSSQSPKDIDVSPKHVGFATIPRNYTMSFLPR", "test": "CYP inhibition in human liver microsomes"}, "DU145": {"test_system": "DU145", "test": "MTT cell proliferation assay", "assay_type": "cell-based, human", "conditions": "0.5 mg/ml Etn, 48 h; range given for PC-3, DU145 and C4-2B together", "description": "(§4) After 48 h, drug containing medium was replaced by medium containing MTT (tetrazolium bromide) at a concentration of 0.5 mg/ml. The yellow tetrazolium salt is reduced to insoluble purple formazan by viable cells. After 4 h of incubation in dark, formazan crystals produced by viable cells were dissolved by 200 μl DMSO and the amount of formazan crystals formed was quantified by recording the absorbance at 570 nm using multi-well plate reader. […] After 10 days, colonies were fixed with 4% formaldehyde, stained with crystal violet and counted."}, "PC-3 cells [2]": {"test_system": "PC-3 cells", "test": "MTT cell proliferation assay", "assay_type": "cell-based, human", "description": "Next, a clonogenic cell survival assay was performed to assess the reproductive capacity of cells upon drug removal.\nas §4"}, "RWPE-1": {"test_system": "RWPE-1", "test": "MTT cell proliferation assay, normal prostate cells", "assay_type": "cell-based", "conditions": "0.5 mg/ml Etn, 48 h", "description": "as §4"}, "[3]": {"test": "Stability in simulated gastric fluid (SGF)", "assay_type": "in vitro ADME", "conditions": "10 μM, SGF pH 1.2, over 1 h", "description": "as §1, §2, §3"}, "CK KD PC-3 cells": {"test_system": "CK KD PC-3 cells", "test": "MTT assay in choline kinase knock down cells (siRNA)", "assay_type": "cell-based", "conditions": "Homo sapiens, PC-3, 48 h; read-out: decrease in cell viability", "from_the_text": "(Panel D) Choline kinase expression in prostate cancer cell lines (PC-3, DU145 and C42B) and normal prostate cell line (RWPE-1). GAPDH was used as a loading control. (Panel E) Scatter-plot comparing choline kinase expression in normal and cancer tissue from prostate cancer patients (p=0.002). The p value for statistical significance was set up as 0.05, while the fold change was defined as mean of all individual data points of analyzed datasets. (Panel Fi) Micrographs showing immunohistochemical staining of choline kinase enzyme in normal and cancer tissue from prostate cancer patients. (Panel Fii) Quantification (composite score) of choline kinase expression in normal and cancer tissue from prostate cancer patient. Five normal and five cancer tissue cases on TMA were scored for choline kinase staining percentage and intensity and composite scores were calculated using two parameters. As shown in these figures, choline kinase enzyme is highly expressed in cancer tissue as opposed to normal tissue.\nA siRNA approach was further employed to confirm the role of CK in Etn-induced cell death."}, "PC-3 cells [4]": {"test_system": "PC-3 cells", "test": "Intracellular levels of Etn and PhosE by LC-MS/MS", "assay_type": "cell-based, human", "conditions": "1 mg/ml, 48 h, pH 7.4"}, "PC-3-luc tumors": {"test_system": "PC-3-luc tumors", "test": "Glucose and glutamine contents in tumors (LC-MS/MS)", "conditions": "40 mg/kg Etn-treated tumors vs untreated control"}}, "data": [{"compound": "NCCO", "note": "[Etn, monoethanolamine]", "values": [{"measurement": "IC50", "setting": "CYP2D6", "value": "> 100", "unit": "µM"}, {"measurement": "stability in SIF", "setting": "[1]", "value": "remained unchanged"}, {"measurement": "Ki67 positivity", "setting": "Ki67", "value": "~40", "unit": "%"}, {"measurement": "IC50", "setting": "CYP2A6", "value": "> 100", "unit": "µM"}, {"measurement": "reduction of survival", "setting": "DU145", "value": "30-52%"}, {"measurement": "Etn-induced cell death with HIF1-α stabilization", "setting": "PC-3 cells [2]; 35 μg/mL DMOG pre-treatment 4 h, then 1 and 2 mg/ml Etn with DMOG 48 h", "value": "more effective in reducing survival in PC-3 cells"}, {"measurement": "reduction of cell survival", "setting": "PC-3 cells [2]; 0.5 mg/ml Etn, 48 h, pH 7.4 (siRNA experiment)", "value": "~38", "unit": "%"}, {"measurement": "reduction of survival", "setting": "PC-3 cells [2]; 0.5 mg/ml Etn, 48 h, range given for PC-3, DU145 and C4-2B together", "value": "30-52%"}, {"measurement": "reduction in cell proliferation", "setting": "PC-3 cells [2]; 1 mg/ml Etn alone, 48 h, pH 7.4", "value": "~33", "unit": "%"}, {"measurement": "reduction in cell proliferation", "setting": "PC-3 cells [2]; 1 mg/ml Etn in the presence of 1 μM CKI, 48 h, pH 7.4", "value": "~17", "unit": "%"}, {"measurement": "IC50", "setting": "PC-3 cells [2]; Homo sapiens, PC-3, 48 h, pH 7.4, MTT, 48 h, pH 7.4, read-out: half-maximal concentration (IC50)", "value": "~880", "unit": "µg/mL"}, {"measurement": "half-maximal concentration (IC50)", "setting": "PC-3 cells [2]; MTT, 48 h, pH 7.4", "value": 880, "unit": "µg/mL"}, {"measurement": "reduction of survival", "setting": "RWPE-1", "value": "remained unaffected"}, {"measurement": "stability in SGF", "setting": "[3]", "value": "stable"}, {"measurement": "cytotoxicity at 500 µg/mL", "setting": "CK KD PC-3 cells", "value": "~11", "unit": "%"}, {"measurement": "increase in intracellular PhosE levels compared to control cells", "setting": "PC-3 cells [4]", "value": "~40", "unit": "fold"}, {"measurement": "glucose and glutamine contents", "setting": "PC-3-luc tumors", "value": "significantly reduced"}]}]}
